Assay results reported in the NIST ThermoML archive (doi:10.1021/je0340755).

Test: xn = mol fraction of the nth substance listed
Conditions: 101.3 kPa, Liquid; for viscosity: Capillary tube (Ostwald / Ubbelohde) method

OCCCCO [1,4-butanediol] + O
Conditions	mass density, 318.15 K [kg/m3]	mass density, 328.15 K [kg/m3]	mass density, 338.15 K [kg/m3]	speed of sound, 318.15 K [m/s]	speed of sound, 328.15 K [m/s]	speed of sound, 338.15 K [m/s]	viscosity, 328.15 K [mPa·s]	viscosity, 338.15 K [mPa·s]
x2 = 0.055	–	994.94	988.66	–	1554.9	1531.3	18.38	12.72
x2 = 0.1534	–	996.05	989.67	–	1564.8	1540.8	16.32	11.28
x2 = 0.2472	–	997.2	990.72	–	1575.6	1549.4	14.35	9.897
x2 = 0.3542	–	998.64	992.05	–	1590.3	1562.2	12.12	8.335
x2 = 0.4531	–	999.93	993.23	–	1605	1575.1	10.08	6.914
x2 = 0.498	–	1000.44	993.7	1640	1610.8	1580.7	9.167	6.279
x2 = 0.5578	1008.07	1001.01	994.23	1648.7	1618.6	1588.5	7.972	5.449
x2 = 0.6513	1008.53	1001.51	994.7	1661.1	1631.1	1599	6.178	4.213
x2 = 0.7496	1007.83	1000.99	994.27	1671.4	1641.4	1611.3	4.438	3.033
x2 = 0.8475	1004.59	998.24	991.81	1669	1642.3	1615.6	2.877	2
x2 = 0.9081	1000.44	994.62	988.57	1645	1626.3	1606.6	1.965	1.404
x2 = 0.9152	999.82	994.08	988.08	1640.3	1623.2	1605.1	1.858	1.335
x2 = 0.9253	998.88	993.26	987.35	1633.3	1618	1601.7	1.705	1.235
x2 = 0.9355	997.88	992.38	986.56	1624.2	1611.8	1597.4	1.549	1.133
x2 = 0.9543	995.86	990.62	984.97	1604.9	1597.3	1587.8	1.257	0.941
x2 = 0.955	995.78	990.55	984.91	1603.8	1596.3	1586.8	1.246	0.934
x2 = 0.9597	995.24	990.08	984.49	1598.2	1592.2	1584.2	1.172	0.885
x2 = 0.9699	994.03	989.02	983.54	1584.8	1581.9	1577.1	1.009	0.776
x2 = 0.9804	992.74	987.89	982.52	1568.2	1569.6	1569	0.837	0.662
x2 = 0.9901	991.5	986.81	981.56	1552.7	1558.3	1560	0.674	0.553
x2 = 0.9924	991.2	986.55	981.32	1548.3	1555.3	1558.2	0.635	0.527
x2 = 0.9955	990.8	986.2	981.01	1542.8	1550.2	1554.5	0.581	0.491
